Assay results as given in patent US11592453B2, “Personalized metabolomic profiling of specialized pro-resolving mediators” (THE BRIGHAM AND WOMEN'S HOSPITAL, INC., priority 2016, dated 2023).

Experiments:
[1] = system: CREB and S6 in neutrophils and monocytes; test: Single-cell analysis of intracellular signaling in whole blood leukocytes; assay type: cell-based, human
human macrophages = test: Real-time analysis of phagocytosis of E. coli by human macrophages; assay type: cell-based; conditions: 1 nM each; for rank of increase in macrophage phagocytosis among individual SPMs: individually
Experimental: Human peripheral blood mononuclear cells from deidentified healthy human volunteers from the Children's Hospital Boston blood bank were isolated by density-gradient, Ficoll-Histopaque isolation, which was followed by monocyte purification. The monocytes were then cultured for 7 days in RPMI 1640, 10% fetal calf serum (FCS) and were differentiated into macrophages through culturing with granulocyte-macrophage colony-stimulating factor (GM-CSF, 20 ng/ml).
Real-time imaging of human macrophages was performed by plating the cells (50,000 cells/well in PBS++) onto 8-well chamber slides. The chamber slides were kept in a Stage Top Incubation system for microscopes equipped with a built-in digital gas mixer and temperature regulator (TOKAI HIT model INUF-K14). A panel of SPMs (RvE1, RvD1, RvD5, LXB4, and MaR1; 1 nM each or in combination) was added to the macrophages for 15 min, which was followed by the addition of BacLight Green-labeled E. coli (at an E. coli:phagocyte ratio of 50:1). Images were then acquired every 10 min for 3 hours at 37 °C with a Keyence BZ-9000 (BIOREVO) inverted fluorescence phase-contrast microscope (20× objective) equipped with a monochrome-color switching camera using BZ-II Viewer software (Keyence). Mean fluorescence intensity was quantified with a BZ-II Analyzer.

E. coli = test: Whole blood bacterial killing during coagulation; assay type: cell-based; conditions: BAI 200 μM, 24 h
Experimental: FIG. 10 illustrates the inhibitor of SPM formation BAI reduces bacterial killing. Freshly drawn human peripheral blood (4 mL) was placed in silicone-coated tubes at 37° C. for 24 h and was either stopped by snap freezing for LC-MS/MS, or supernatants were placed on LB agar plates and incubated overnight at 37° C. before enumeration of bacterial colonies. (A) Bacterial survival and (B) SPM in human peripheral blood (2.0 mL) incubated with E. coli (7×10^8 CFU) in the presence or absence of a LOX inhibitor (BAI) 200 μM for 24 h; 37° C. (n=4 individual donors). Data are means±SEM; *P<0.05, ****P<0.0001 for +BAI vs. Coag using ratio t-test.
Fresh human blood (2.0 ml) without anticoagulant was incubated with E. coli (˜7×108) in the presence or absence of 200 µM baicalein (a LOX inhibitor; Sigma) and allowed to coagulate at 37° C. for 24 hours. Serum from blood were diluted in PBS on ice and aliquots were placed on LB agar and incubated overnight in a 37° C. incubator. Colonies were enumerated.

[2] = system: SPM production in human whole blood; test: SPM and eicosanoid production during coagulation with heparin, eptifibatide, ADA, celecoxib or BAI; assay type: cell-based
Experimental: FIG. 2 illustrates regulators of SPM formation in human blood. (A to E) Freshly drawn human peripheral blood (4 ml) containing heparin (10 U/ml) was placed in polypropylene tubes (A) whereas human peripheral blood without anticoagulant was placed in silicone-coated tubes (B to E) and incubated at 37° C. for the time course of 0 to 24 hours (see Example 1, Materials and Methods). The samples were then subjected to snap-freezing for extraction and LC-MS/MS analysis. (A) Concentrations of the members of the SPM cluster (identified in FIG. 1) in samples treated without (Coag.) or with heparin (10 U/ml) during the incubation period. Data are means±SEM of three individual donors. (B) Left: Combined concentrations of the total SPM cluster, prostaglandins, and thromboxanes after 24 hours of coagulation in the presence or absence of the αIIbβ3 inhibitor eptifibatide (Eptifib.; 20 μM). Middle: Clot volumes after 24 hours of coagulation of the indicated samples. Right: Representative clot images. Data are means±SEM of three individual donors. (C) Concentrations of total SPMs and of the indicated individual SPMs after 24 hours of coagulation in the presence or absence of 200 mU ADA. Data are means±SEM of three individual donors. *P<0.05, **P<0.01 by ratio t-test. (D) Top: LC-MS/MS measurements of adenosine concentrations in whole blood at the indicated time points during coagulation in the presence or absence of ADA. **P<0.01 when compared to the zero-hour time point. Bottom: Flow cytometric analysis of the percentage of neutrophil-platelet aggregates, which were defined as being double-positive for CD16 and CD42b, in whole blood allowed to coagulate for the indicated times in the absence (Coag.) or presence of ADA. Data are means±SEM of five individual donors. *P<0.05, **P <0.01 by student's t test. For dot plots and gating, see FIG. 7B. (E) MS/MS fragmentation profiles with diagnostic ions for the indicated SPMs identified in (C). (F) Left: PCA score plot. Red denotes +ADA for 1 hour; yellow, coagulation for 1 hour; green, coagulation for 24 hours; blue, +ADA for 24 hours. Right: PCA loading plot showing temporal clustering of the indicated mediators from three individual donors. Red denotes LM at 1 hour; blue denotes 24 hours with ADA).
FIG. 8 illustrates SPM formation in human blood clots being regulated by lipoxygenase activity. (A and B) Freshly drawn human peripheral blood (4 ml) was placed in silicone-coated tubes at 37° C. for 24 hours and coagulation was stopped by snap-freezing before LC-MS/MS analysis was performed. Concentrations of total SPMs, prostaglandins, and thromboxanes after 24 hours of coagulation (Coag.) in the presence or absence of (A) 100 μM indomethacin (Indo.) (n=six individual donors), (B) 500 nM celecoxib (CLX) or 20 μM BAI (n=three individual donors). […]

[3] = system: prostaglandin, thromboxane and SPM production in human whole blood; test: LM metabololipidomics of human whole blood during coagulation in the presence of indomethacin; assay type: cell-based; conditions: 100 μM indomethacin
Experimental: FIG. 8 illustrates SPM formation in human blood clots being regulated by lipoxygenase activity. (A and B) Freshly drawn human peripheral blood (4 ml) was placed in silicone-coated tubes at 37° C. for 24 hours and coagulation was stopped by snap-freezing before LC-MS/MS analysis was performed. Concentrations of total SPMs, prostaglandins, and thromboxanes after 24 hours of coagulation (Coag.) in the presence or absence of (A) 100 μM indomethacin (Indo.) (n=six individual donors), (B) 500 nM celecoxib (CLX) or 20 μM BAI (n=three individual donors). Data are means±SEM; *P<0.05 for +BAI vs. Coag; ****P<0.0001 for +Indo vs. Coag. using ratio t-test.
Human whole blood was transferred in 4-ml aliquots to negatively charged, silicone-coated 10-ml tubes (BD) without anticoagulant. For experiments with heparin, the heparinized blood was placed in 15-ml polypropylene tubes before incubation at 37° C. For LM profiling at designated times, all samples were immediately subjected to a workup procedure by which whole blood was snap-frozen in a dry ice/isopropanol bath and were returned to room temperature (×3 cycles) before undergoing centrifugation at 100,000 g at 4° C. Supernatants (and clots for select experiments; see FIG. 6) were collected and were subjected to LC-MS/MS LM metabololipidomics. […]

Row | Compound | intracellular signaling in neutrophils and monocytes [1] | extent of phagocytosis of E. coli by human macrophages, individual SPMs (human macrophages) | further results
1 | CC[C@@H](O)/C=C/C=C\C[C@@H](O)/C=C/C=C/C=C\[C@@H](O)CCCC(=O)O [RvE1, Resolvin E1 (5S, 12R, 18R-trihydroxy-eicosa-6Z, 8E, 10E, 14Z, 16E-pentaenoic acid)] | activated CREB and S6 | statistically significantly enhanced | rank of increase in macrophage phagocytosis among individual SPMs (human macrophages): greatest increases
2 | CCCCC[C@H](O)[C@H](O)/C=C/C=C/C=C\C=C\[C@@H](O)CCCC(=O)O [LXB4, lipoxin B4: (5S, 14R, 15S-trihydroxy-eicosa-6E, 8Z, 10E, 12E-tetraenoic acid)] | activated CREB and S6 | statistically significantly enhanced | rank of increase in macrophage phagocytosis among individual SPMs (human macrophages): greatest increases
3 | CC/C=C\C/C=C\C[C@H](O)\C=C/C=C/C=C/[C@H](O)C/C=C\CCC(=O)O [Maresin 1, maresin 1 (7R, 14S-dihydroxy-docosa-4Z, 8E, 10E, 12Z, 16Z, 19Z-hexaenoic acid)] | activated CREB and S6 | statistically significantly enhanced | –
4 | O=c1cc(-c2ccccc2)oc2cc(O)c(O)c(O)c12 [baicalein] | – | – | increase in bacterial counts in the presence of the lipoxygenase inhibitor (E. coli; P<0.0001): > 10 fold; reduction in the abundances of members of the SPM cluster from coagulation (E. coli; with E. coli): > 80%; total amounts of SPMs ([2]; 20 μM BAI, 24 hours): reduced the total amounts of SPMs
5 | COc1ccc2c(c1)c(CC(=O)O)c(C)n2C(=O)c1ccc(Cl)cc1 [indomethacin] | – | – | total SPM amounts compared to absence of inhibitor [3]: did not substantially change; inhibition at 100 µM ([3]; Homo sapiens, 24 hours vs. coagulation alone, read-out: inhibition of total prostaglandin and thromboxane production): > 99%
6 | CC/C=C\C[C@H](O)/C=C/C=C\C=C\C=C\[C@@H](O)[C@@H](O)C/C=C\CCC(=O)O [RvD1, Resolvin D1 (7S, 8R, 17S-trihydroxy-docosa-4Z, 9E, 11E, 13Z, 15E, 19Z-hexaenoic acid)] | activated CREB and S6 | statistically significantly enhanced | –
7 | CC/C=C\C[C@H](O)/C=C/C=C\C/C=C\C=C\[C@@H](O)C/C=C\CCC(=O)O [RvD5, Resolvin D5 (7S, 17S-dihydroxy-docosa-4Z, 8E, 10Z, 13Z, 15E, 19Z-hexaenoic acid)] | activated CREB and S6 | – | –
8 | heparin | – | – | reduction of SPMs in total in blood containing heparin ([2]; heparin 10 U/ml): 98%
